# From patent publication US12156876B2, “Formulations of influenza therapeutics” (priority 2018, dated 2024)
# Legend:
# influenza = test: anti-influenza potency; type: cell-based
# [1] = BALB/C, mouse, in vivo
smiles,measurement,setting,value
"O=C(O)C1C2CCC(CC2)C1n1cc(F)c2cnc(-c3c[nH]c4ncc(Cl)cc34)nc21 (centres unmarked) [Compound 1, 3-(2-(5-chloro-1H-pyrrolo[2,3-b]pyridin-3-yl)-5-fluoro-7H-pyrrolo[2,3-d]pyrimidin-7-yl)bicyclo[2.2.2]octane-2-carboxylic acid]",EC50,influenza,0.1 to 3 nM
same,drug level excess of the therapeutic dose (anti-influenza potency EC50),[1],at least 100 fold
